Laboratory results taken from patent US20190369107A1, “ZWITTERIONIC NANOPARTICLES” (priority 2017, published 2019).
“Also recorded” adds a separate entry of the source.

System: A549 cells
Experiment: Toxicity tests of QDQRs on A549 cells (Cellomics Array Scan, Hoechst 33342 / MitoTracker Deep Red)
Assay type: cell-based, human
Conditions: 16 h incubation
Procedure: The culture medium consisted of 10% FCS in DMEM with 1% PenStrep and sodium pyruvate in each case. The incubation of the cells always took place at 37° C. and a CO2 content of 5%.
The zwitterionic Quantum Dots/Quantum Rods (QDQRs) nanoparticles were examined in various in vitro experiments with regard to their toxicity and non-specific cell uptake. Yellow-emitting QDQRs comprising the short- and long-chain zwitterionic ligand (QDQRs-17a and QDQRs-17b) were used for the studies to investigate a possible influence of the chain length of the ligand on the interactions of the QDQRs with cells. A549 cells were used for both toxicity and cell uptake studies. A549 cells are human basal epithelial cells derived from an adenocarcinoma of the lung which have been cultured as a cell line.
The toxicity of the zwitterionic QDQRs-17a and QDQRs-17b was tested using the Cellomics Array Scan. For the toxicity tests, A549 cells were plated on a 96-well plate and incubated with QDQR solutions in a concentration range of 25 to 500 nM. Cadmium chloride, which was used in a concentration range from 25 to 1,000 μM, was used as the positive control. The increase in the cadmium chloride concentration by a factor of 1,000 is due to the fact that a single QDQR of the tested samples contains about 8,200 cadmium atoms. Assuming that the totality of the nanoparticles dissolve and release the cadmium contained in them, the lowest concentration of 25 nM QDQRs used would correspond to a concentration of 205 μM cadmium chloride. After an incubation period of 16 hours, the cells were blended with a staining solution consisting of the cell nucleus dye Hoechst 33342 and the mitochondrial dye MitoTracker® Deep Red FM and then fixed with formaldehyde solution. The 96-well plates were then read out with the Cellomics Array Scan. A software was used to automatically determine the parameters number of cells, cell nucleus intensity and cell nucleus size using the intensity of the dye by Hoechst, and the transmembrane potential of the mitochondria on the basis of the mitochondrial dye. In addition, microscopic images of the cells were taken to control the number of cells and cell morphology.
For the toxicity tests, A549 cells were plated in culture medium on a 96-well plate (10,000 cells per well) and incubated overnight. When the medium had been sucked off, the samples to be tested (diluted with culture medium, 100 μL per well) were applied in different concentrations and incubated for 16 hours. The samples were then removed and the cells were mixed with 100 μL staining solution (final concentration: 75 nM MitoTracker® Deep Red and 2.5 μg/ml Hoechst 33342 in DMEM with 10% FCS) and incubated for a further 30 minutes. To fix the cells, the staining solution was removed and 100 μL of a warm fixing solution (3.7% formaldehyde in Dulbecco's PBS, DPBS) were added. After 20 minutes, the fixing solution was sucked off and washed twice with DPBS before the samples were measured on the Cellomics Array Scan.

[Cl][Cd][Cl] [cadmium chloride]
morphological changes of the cells or cell nuclei in microscopic images (cadmium chloride at 100 μM or more): get globular
number of cells per well (over the tested concentration range, FIG. 1 A): decreases significantly; also recorded: decreases noticeably
cell nucleus intensity (Hoechst 33342) (over the tested concentration range, FIG. 1 B): decreases significantly
cell nucleus size (over the tested concentration range, FIG. 1 C): decreases significantly
transmembrane potential of the mitochondria (over the tested concentration range, FIG. 1 D): first increases in the concentration range from 50 to 100 μM and then decreases again
concentration at which a toxic effect on the cells is shown (positive control tested 25 to 1,000 μM): ≥ 100 µM
